Laboratory results taken from patent publication US20240287110A1, “PHOSPHATE OF TRIFLUOROMETHYL-SUBSTITUTED SULFONAMIDE COMPOUND” (CHIA TAI TIANQING PHARMACEUTICAL GROUP CO., LTD., priority 2021, published 2024).
In brackets after ≈: the same amount, converted by molar mass.

Assays:
[1] = molecular target: T1, BCL-2/BAK (Homo sapiens, UniProt P10415); assay: Screening on inhibitory activity for BCL-2/BAK binding (Cisbio HTRF kit); details: Tag1-BCL-2 / Tag2-BAK binding, 25° C.
T1 construct: purchased Cisbio 63ADK000CB01PEH
Description: A 500 nM Tag1-BCL-2 protein stock solution and a 20 μM Tag2-BAK protein stock solution were diluted to 5 nM and 120 nM respectively with a dilution buffer in a kit (manufacturer: Cisbio, Cat. No.: 63ADK000CB01PEH). […] of Tag1-BCL-2 protein diluent was added to each well, and then different compounds dissolved in DMSO were added to the wells using a nanoliter pipettor, allowing the final compound concentrations to be 200 nM to 0.0488 nM (4-fold gradient for 7 concentrations in total). Blank control wells (without enzyme) and negative control wells (with enzyme, plus vehicle DMSO) were set, and 2 replicate wells were set. Finally, 5 μL of Tag2-BAK protein diluent was added to each well, and the mixture was mixed well by centrifugation and incubated at 25° C. for 15 min. 100× anti-Tag1-Eu^3+ and 100× anti-Tag2-XL665 were both diluted to 1× working concentration with a detection buffer in the kit. Anti-Tag1-Eu^3+ and anti-Tag2-XL665 were mixed well in a 1:1 ratio, and 5 μL of the mixture was added to each well. The resulting mixture was incubated at 25° C. for 2 h or more. The plate was read using a PE Envision multi-functional microplate reader (excitation: 620 nm, emission: 665 nm), and IC50 (shown in Table 1) was calculated by four-parameter fitting.

[2] = Determination of solubility in water at pH 7.4; type: physicochemical; details: aqueous phosphate medium, aqueous buffer, thermodynamic from solid; pH 7.4, 25° C.
Description: Reagents used were 0.2 M NaOH (SinoPharm lot No. 20180223) and 0.2 M phosphate (SinoPharm 20180910, pH 7.4). Instruments/equipment used included a balance (HPLC Dionex U3000, Mettler XPE105DR), pipettes (TIANBO 0.5 mL and 0.1 mL), a thermostatic CNC shaker (ZWY-240, set at 25° C. and 200 rpm).
The example compounds were tested in an aqueous medium at 25° C. An excess of each example compound was weighed out and mixed with an aliquot of the target medium in a clear glass vial. The vial was sealed with a cap and then shaken in the shaker at 25° C. as appropriate. When equilibration was completed, the sample was removed from the shaker and the final pH was measured. The suspension was filtered through a 13 mm needle-type filter and a 0.22 m Syring Filter needle-type filter (hydrophilic PTFE-SA membrane, lot No. HKS13SATQ2B). Each filter was used for only one sample. The determination was carried out after the filtrate had been suitably diluted with the same solvent as used for the stock solution. The concentration of the sample was calculated based on a calibration curve of the compound.

[3] = system: RS4; 11 cells; assay: Inhibitory effect on proliferation of RS4; 11 cells (CCK-8); type: cell-based; details: Homo sapiens, 72 h, CCK-8, 5% serum
Description: RS4; 11 cells in logarithmic growth phase and good cell condition were added to a centrifuge tube and centrifuged at 1500 rpm for 3 min in a low speed centrifuge. The supernatant was discarded, and 5 mL of complete medium (RPMI basic medium+10% FBS) was added using a pipette for cell resuspension. The cells were counted using a cell counter and diluted with complete medium to a cell density of 2×10^5 cells/mL, and then an equivalent amount of RPMI basic medium was added to adjust the serum concentration to 5% and the cell density to 1×10^5 cells/mL for plate seeding. The cells were seeded on a 96-well plate at […] using a multi-channel pipette and cultured in a cell incubator at 37° C., 5% CO2 with saturated humidity. After 24 h of incubation, compounds (500-0.1 nM) were loaded using a nanoliter pipettor, 2 replicate wells were set for each concentration, and cells without compound were used as negative controls. After 72 h, CCK-8 was added at 10 μL/well for incubation for 4 h, then absorbance was measured at 450 nm with an Envision plate reader, and inhibition rate was calculated. […] A dose-response curve was fitted by four-parameter analysis, with the logarithm of compound concentration as abscissa and inhibition rate as ordinate, so that IC50 was calculated (see Table 2).

[4] = molecular target: T2, BCL-XL/BAK (Homo sapiens, UniProt Q07817); assay: Screening on inhibitory activity for BCL-XL/BAK binding (Cisbio HTRF kit); details: Tag1-BCL-XL / Tag2-BAK binding, 25° C.
T2 construct: purchased Cisbio 63ADK000CB04PEH
Description: A 300 nM Tag1-BCL-XL protein stock solution and a 10 μM Tag2-BAK protein stock solution were diluted to 2 nM and 80 nM respectively with a dilution buffer in a kit (manufacturer: Cisbio, Cat. No.: 63ADK000CB04PEH). 5 μL of Tag1-BCL-XL protein diluent was added to each well, and then different compounds dissolved in DMSO were added to the wells using a nanoliter pipettor, allowing the final compound concentrations to be 2000 nM to 0.488 nM (4-fold gradient for 7 concentrations in total). Blank control wells (without enzyme) and negative control wells (with enzyme, plus vehicle DMSO) were set, and 2 replicate wells were set. Finally, 5 μL of Tag2-BAK protein diluent was added to each well, and the mixture was mixed well by centrifugation and incubated at 25° C. for 15 min. 100× anti-Tag1-Eu^3+ and 100× anti-Tag2-XL665 were both diluted to 1× working concentration with a detection buffer in the kit. Anti-Tag1-Eu^3+ and anti-Tag2-XL665 were mixed well in a 1:1 ratio, and 5 μL of the mixture was added to each well. The resulting mixture was incubated at 25° C. for 2 h or more. The plate was read using a PE Envision multi-functional microplate reader (excitation: 620 nm, emission: 665 nm), and IC50 (shown in Table 1) was calculated by four-parameter fitting.

T1 sequence (P10415 whole entry, species assumed): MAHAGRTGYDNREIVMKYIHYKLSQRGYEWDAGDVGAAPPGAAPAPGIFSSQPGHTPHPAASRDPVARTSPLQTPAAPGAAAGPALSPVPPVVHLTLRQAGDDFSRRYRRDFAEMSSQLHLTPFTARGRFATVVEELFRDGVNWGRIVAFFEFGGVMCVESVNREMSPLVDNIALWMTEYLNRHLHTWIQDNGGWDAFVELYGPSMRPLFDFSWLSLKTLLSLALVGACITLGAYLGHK
T2 sequence (Q07817 whole entry, species assumed): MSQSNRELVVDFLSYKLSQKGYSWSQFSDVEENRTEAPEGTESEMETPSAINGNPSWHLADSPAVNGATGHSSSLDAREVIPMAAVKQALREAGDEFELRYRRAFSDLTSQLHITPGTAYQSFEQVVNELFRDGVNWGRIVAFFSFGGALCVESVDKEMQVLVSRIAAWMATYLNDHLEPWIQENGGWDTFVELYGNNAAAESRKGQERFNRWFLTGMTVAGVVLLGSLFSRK

IC50 [1] | solubility [2] | IC50 [3] | IC50 [4] | Structure (SMILES)
3 nM | 19.4 mg/mL (≈ 18.5 mM) | 15.9 nM | 328 nM | CC1(C)CCC(CN2CCN(c3ccc(C(=O)NS(=O)(=O)c4ccc(NC[C@H]5COCCO5)c([N+](=O)[O-])c4)c(Oc4cc5ccnc-5n(COP(=O)(O)O)c4)c3)CC2)=C(c2ccc(C(F)(F)F)cc2Cl)C1 [Example 1]
2.9 nM | 2.23 mg/mL (≈ 2.17 mM) | 14.8 nM | 251 nM | Cc1cc(C(F)(F)F)ccc1C1=C(CN2CCN(c3ccc(C(=O)NS(=O)(=O)c4ccc(NC[C@H]5COCCO5)c([N+](=O)[O-])c4)c(Oc4cc5ccnc-5n(COP(=O)(O)O)c4)c3)CC2)CCC(C)(C)C1 [Example 2]
